US8299052B2, “Pharmaceutical compositions and methods for improved bacterial eradication” (Shionogi Inc., priority 2006, dated 2012)
Values after ≈ are worked out from the molar mass of the structure shown. Like-named read-outs stand apart in the source and are kept apart here. Marks after values point to notes of the source that are not given here.

Legend:
Streptococcus pyogenes [1] = settings: Omnicef label, Tack et al, AAC 1998; cited from earlier work
Streptococcus pyogenes [2] = settings: cited from earlier work
Streptococcus pyogenes [3] = assay: Daily T>MIC and Total T>MIC calculated from pharmacokinetic model (WinNonlin) plasma profiles
Description: The Daily T>MIC must also be calculated for each different regimen, and at the relevant MIC. This information was not presented in any of the articles and so it was calculated by Applicants. The Daily T>MIC is calculated for each regimen by creating a plasma profile from pharmacokinetic data published in the literature. Prior to creating the plasma profile a pharmacokinetic model is developed from plasma profiles from one or more doses reported in the literature. […] The models are industry standard compartmental models, generated with WinNonlin, a common program used in the pharmaceutical industry for pharmacokinetic analysis and modeling. Once the Daily T>MIC for each regimen has been calculated, the Total T>MIC is calculated by multiplying the Daily T>MIC by the Duration of Therapy (Days Tx in the table). Thus a composite parameter, Total T>MIC, is constructed that includes both factors relevant to eradication of Streptococcus pyogenes by a given regimen. The equation can then be used to determine the Total T>MIC required to achieve eradication rates ≧85% (or any other desired eradication rate).

Streptococcus pyogenes [4] = assay: MIC-90 of penicillin VK for Streptococcus pyogenes; assay type: cell-based; settings: where study did not report MIC, assumed equal to MIC determined in Applicants' Phase III trial
Excerpt: The information in Table 1 was collected from several studies published in the literature. Information such as drug, regimen, Days Tx and Eradication can be taken directly from the literature articles. Information such as the MIC will often have been determined as part of the study and may be reported in the article, but in many cases it may not have been determined or reported.

In the case of `CC1(C)S[C@@H]2[C@H](NC(=O)COc3ccccc3)C(=O)N2[C@H]1C(=O)O` [Pen VK, penicillin VK], the MIC-90 (Streptococcus pyogenes [1]) is listed as 0.03* μg/mL, the “% Erad” value (Streptococcus pyogenes [2]; 250 QID, Days Tx 10, MIC-90 0.03, Omnicef label, Tack et al, AAC 1998) is listed as 82% and the “% Erad” value (Streptococcus pyogenes [2]; 250 QID, Days Tx 10, McCarty 1993) is listed as 100%. The “% Erad” value (Streptococcus pyogenes [2]; 250 QID, Days Tx 10, Mullen 992) was 85.5%, the “% Erad” value (Streptococcus pyogenes [2]; 250 TID, Days Tx 5, Gerber et al, AJDC 1987) was 92% and the “% Erad” value (Streptococcus pyogenes [2]; 250 TID, Days Tx 10, Gerber et al, AJDC 1987) was 96%. For the same compound, the “% Erad” value (Streptococcus pyogenes [2]; 500 TID, Days Tx 0 (spontaneous eradication), Zwart et al. BMJ 2000) was 7%, the “% Erad” value (Streptococcus pyogenes [2]; 500 TID, Days Tx 3, Zwart et al, BMJ 2000) was 41% and the “% Erad” value (Streptococcus pyogenes [2]; 500 TID, Days Tx 7, Zwart et al, BMJ 2000) was 72%. For the same compound, the “% Erad” value (Streptococcus pyogenes [2]; 500 TID, Days Tx 10, Ketek SBA, Norrby et al, Scand J Infect Dis 2001) was 89%, the “% Erad” value (Streptococcus pyogenes [2]; 600 TID, Days Tx 10, Carbon et al, J Antimicrob Chemother 1995) was 86% and the “% Erad” value (Streptococcus pyogenes [2]; 750 QD, Days Tx 10, Gerber et al, AJDC 1989) was 82%. For the same compound, the “% Erad” value (Streptococcus pyogenes [2]; 800 BID, Days Tx 5, Stromberg et al, Scand J Infect Dis 1988) was 73%, the “% Erad” value (Streptococcus pyogenes [2]; 800 BID, Days Tx 10, Stromberg et al, Scand J Infect Dis 1988) was 94% and the “Daily T > MIC” value (Streptococcus pyogenes [3]; 250 QID, MIC-90 0.015) was 55.30%. The “Daily T > MIC” value (Streptococcus pyogenes [3]; 250 QID, MIC-90 0.03) was 46.40%, the “Daily T > MIC” value (Streptococcus pyogenes [3]; 250 TID, MIC-90 0.015) was 39.29% and the “Daily T > MIC” value (Streptococcus pyogenes [3]; 500 TID, MIC-90 0.015) was 48.10%. For the same compound, the “Daily T > MIC” value (Streptococcus pyogenes [3]; 600 TID, MIC-90 0.015) was 49.80%, the “Daily T > MIC” value (Streptococcus pyogenes [3]; 750 QD, MIC-90 0.015) was 17.30% and the “Daily T > MIC” value (Streptococcus pyogenes [3]; 800 BID, MIC-90 0.015) was 35.00%. It also gave an MIC90 (Streptococcus pyogenes [4]) of 0.015 µg/mL (≈ 0.0428 µM).
